Patent US20240376119A1, “SPIRO COMPOUND AND USE THEREOF” (CSPC Zhongqi Pharmaceutical Technology (Shijiazhuang) Co., …, priority 2021, published 2024)

Assays:
[1] = Mouse pharmacokinetic assay (intragastric administration, plasma HPLC-MS/MS); assay type: in vivo; settings: ICR mice
Method: ICR mice were intragastrically administered with the compound at 10 mg/kg or 20 mg/kg. At different time points (0.25 h, 0.5 h, 1 h, 2 h, 4 h, 8 h, 24 h) after administration, the mice blood was collected from the orbit. The collected whole blood was anticoagulated with heparin sodium and centrifuged at 3000 g to obtain mouse plasma samples. Methanol was added to precipitate proteins. The drug concentration in the mouse plasma after administration was determined by the HPLC-MS/MS method. A drug concentration-time curve was plotted and the pharmacokinetic parameters were calculated. The pharmacokinetic behavior in mice after the compound administration was described by means of non-compartment model statistical moment parameters.

SHP2 = SHP2 (Homo sapiens (Human), UniProt Q06124); test: Assay for the inhibitory effect on the SHP2 enzyme (DiFMUP substrate, fluorescence); assay type: biochemical; settings: SHP2 activated with SHP-2 activated peptide; DiFMUP 10 μM; read-out: Enzymatic Effect (IC50 on SHP2)
Method: 1× Assay buffer was prepared. A compound to be tested was diluted with DMSO solvent to a stock concentration of 10 mM. The compound to be tested was first diluted to an intermediate concentration of 1000 μM and then further diluted in a 3-fold gradient using DMSO. Therefore, the intermediate gradient dilution concentration of the compound to be tested was: 1000 μM, 3-fold dilution, 11 gradients. 100 nL of each concentration of the compound in the 384-well LDV echo plate was transferred to a new 384-well ELISA plate (assay plate) (corning, Cat #4514) by the Echo550 instrument. The final concentration of the compound to be tested was 10 μM, 3-fold dilution, 11 gradients in duplicate after 10 μL of the reaction reagent was added. The final DMSO concentration was 1%. For both negative and positive control wells, 100 nL DMSO would be transferred.
A mixed liquor of 2× working SHP2 reagent (0.4 nM) and 0.5 μM SHP-2 activated peptide (BPS bioscience #79319-2) was prepared with 1× enzyme buffer. After the above-mixed liquor was incubated at 25° C. for 60 minutes, 5 μL of activated SHP2 kinase solution was transferred with a pipettor to the compound wells and the Max control wells (Corning, #4514) of the plate. Then 5 μL of 1× kinase buffer was transferred to the Min control wells. The plate was centrifuged at 1000 rpm for 30 seconds, sealed, and incubated in a 25° C. constant-temperature incubator for 30 minutes. A substrate solution of DiFMUP (#D6567, Invitrogen™) was prepared with 1× kinase buffer, and its concentration should be 2 times as the final concentration of the assay (DiFMUP final concentration: 10 μM). 5 μL of the prepared substrate solution was transferred with an electric pipettor into each well of the ELISA plate to start the reaction. The plate was centrifuged at 1000 rpm for 30 seconds, sealed, and incubated in a 25° C. constant-temperature incubator for 60 minutes. Read the plate at the excitation/emission wavelength of 358/455 nm after the ELISA plate was placed on the Spark machine.
The RLU values were collected from Spark and the inhibition rate was calculated with the RLU values. Inhibition rate=(maximum value-sample RLU)/(maximum value-minimum value)*100. “Minimum value” was referred to the RLU of the enzyme-free control, and “maximum value” was referred to the RLU of the DMSO control. The data were fit by using the XLFit Excel module (version 5.4.0.8) to obtain IC50 values, and the results are shown in Table 1.

[2] = test system: human acute myeloid leukemia MV-4-11 cells; test: In vitro inhibitory effect on the proliferation of MV-4-11 cells (MTT, 72 h); assay type: cell-based; settings: MV4-11, 72 hours exposure
Method: The human acute myeloid leukemia MV-4-11 cells used in the assay were purchased from Shanghai Institutes for Biological Sciences, Chinese Academy of Sciences. The complete culture medium required for cell culture was IMDM (GIBCO Company), which was supplemented with 10% fetal bovine serum (GIBCO Company). Cells were cultured in a 37° C., 5% CO2 incubator. The reagents used in the assay included dimethyl sulfoxide (purchased from Tianjin Kemiou Chemical Reagent Co., Ltd.), and MTT (Shanghai Topbiochem Co., Ltd., CAS. NO. 298-93-1). The test substance was sealed and stored at 4° C.
Dimethyl sulfoxide was used as the solvent to fully dissolve the test substance and prepare a stock solution with a concentration of 5×10^−2 mol/L. The stock solution was stored at −20° C. A complete culture medium was used as the diluent, and the test substance was diluted to different concentrations in a gradient for later use. 100 µL/well (2×10^4 cells/well) of a suspension of MV-4-11 cells in the complete culture medium was added to a 96-well culture plate. 100 μL/well of the corresponding test substances at different concentrations were added respectively. 8 concentrations were set for each test substance, and 3 duplicate wells were set for each concentration. The plate was cultured in a 37° C., 5% CO2 incubator. 20 μL/well of MTT was added after 72 hours of exposure to the test substances. The plate was cultured for 4 hours in a 37° C., 5% CO2 incubator. The supernatant was discarded, and 150 μL/well of dimethyl sulfoxide was added. The plate contents were oscillated and mixed evenly. The microplate reader was used to detect the OD value at a wavelength of 550 nm. The well only containing the cell suspension without test substance was a control well, and the well only containing the complete culture medium was a blank well. The inhibition rate of the cell growth was calculated with the following formula: • Inhibition rate=(ODcontrol well-ODtest well)/(ODcontrol well-ODblank well)*100%. According to the inhibition rates at each concentration, SPSS software was used to calculate the half inhibitory concentration IC50 value.

hERG channel = hERG channel (Homo sapiens (Human), UniProt Q12809); test: hERG assay, manual whole-cell patch clamp in CHO-K1 cell line stably expressing the hERG channel; assay type: cell-based
Chain of hERG channel (Q12809 whole entry): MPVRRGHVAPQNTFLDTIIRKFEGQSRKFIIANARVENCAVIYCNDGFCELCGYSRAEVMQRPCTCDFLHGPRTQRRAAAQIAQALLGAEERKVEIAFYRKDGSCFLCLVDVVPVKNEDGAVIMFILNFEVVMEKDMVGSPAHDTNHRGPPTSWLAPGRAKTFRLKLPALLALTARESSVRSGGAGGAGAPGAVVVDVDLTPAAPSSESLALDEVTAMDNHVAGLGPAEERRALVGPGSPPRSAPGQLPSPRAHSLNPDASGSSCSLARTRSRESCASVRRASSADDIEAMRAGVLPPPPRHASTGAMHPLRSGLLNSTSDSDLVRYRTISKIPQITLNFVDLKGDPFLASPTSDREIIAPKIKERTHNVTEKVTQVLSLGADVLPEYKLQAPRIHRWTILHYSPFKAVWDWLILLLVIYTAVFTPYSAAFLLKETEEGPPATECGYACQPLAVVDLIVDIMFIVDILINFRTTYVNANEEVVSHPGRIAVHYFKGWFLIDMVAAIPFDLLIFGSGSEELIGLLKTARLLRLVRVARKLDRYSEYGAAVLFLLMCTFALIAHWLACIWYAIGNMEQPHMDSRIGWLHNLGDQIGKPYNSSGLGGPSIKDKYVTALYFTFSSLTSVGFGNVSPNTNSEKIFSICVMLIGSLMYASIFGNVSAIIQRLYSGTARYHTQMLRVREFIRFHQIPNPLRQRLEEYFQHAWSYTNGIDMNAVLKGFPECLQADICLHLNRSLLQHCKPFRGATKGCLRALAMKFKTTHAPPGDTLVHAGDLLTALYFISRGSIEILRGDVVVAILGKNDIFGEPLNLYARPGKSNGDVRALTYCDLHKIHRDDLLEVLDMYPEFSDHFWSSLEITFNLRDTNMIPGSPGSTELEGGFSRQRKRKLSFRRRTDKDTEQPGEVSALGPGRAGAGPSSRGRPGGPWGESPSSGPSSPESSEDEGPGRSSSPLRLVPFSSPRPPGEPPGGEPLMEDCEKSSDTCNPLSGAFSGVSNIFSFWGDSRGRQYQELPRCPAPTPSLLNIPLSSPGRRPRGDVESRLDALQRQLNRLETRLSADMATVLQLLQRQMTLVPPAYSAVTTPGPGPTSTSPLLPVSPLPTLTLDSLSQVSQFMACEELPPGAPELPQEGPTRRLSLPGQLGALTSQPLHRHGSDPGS
Method: This assay included the following aspects: • A manual patch clamp technique was used to record the hERG current in the CHO-K1 cell line stably expressing the hERG channel; • The inhibition rate at each concentration was calculated based on the hERG tail current; • Each compound was tested at 5 concentrations to calculate the IC50 value; • Three cells were tested for each concentration; • One positive control drug was set.
HERG currents were recorded using the whole-cell patch-clamp technique. The cell suspension was added to the cell tank and placed on the upright microscope stage. After the cell adherence, the cells were perfused with extracellular fluid at a flow rate of 1-2 mL/min. The glass microelectrode was drawn in two steps by a micropipette puller, and its resistance value in water was 2-5 MΩ. After establishing the whole-cell recording, the clamp potential was maintained at −80 mV. The hERG tail current was elicited by applying a depolarizing voltage to +60 mV upon the voltage stimulation and then repolarizing to −50 mV. All recordings were made after the current stabilization. Extracellular perfusion administration started from a low concentration, and each concentration lasted for 5-10 minutes until the current was stable, and then proceeded to the next concentration.
The half inhibitory concentration (ICSO) of the test compound was derived from the best fit of the Logistic equation.

[3] = test system: human lung adenocarcinoma NCI-H441 cells; test: In vitro inhibitory effect on the proliferation of NCI-H441 cells (3D CellTiter Glo, 5 days); assay type: cell-based; settings: 120 h, 3D cell viability
Method: The human lung adenocarcinoma cell NCI-H441 used in the assay was purchased from ATCC. The complete culture medium required for cell culture was RPMI 1640 Medium (GIBCO Company), which was supplemented with 10% fetal bovine serum (GIBCO Company). Cells were cultured in a 37° C., 5% CO2 incubator. The reagents used in the assay included dimethyl sulfoxide (purchased from Sigma), a 3D Cell Viability assay kit (purchased from Promega), and the control substance TW-45 used in the assay was obtained homemade. The test substance was sealed and stored at 4° C.
Dimethyl sulfoxide was used as the solvent to fully dissolve the test substance and prepare a stock solution with a concentration of 1×10^−2 mol/L. The stock solution was stored at −20° C. A complete culture medium was used as the diluent, and the test substance was diluted to different concentrations in gradient for later use (the final test concentration was 10000, 3333, 1111, 370, 123, 41, 13.7, 4.5, 1.5, and 0.5 nM). Cells were cultured in a 37° C., 5% CO2 incubator for 5 days. Detection was made on the fifth day. 30 μL of reagent (Celltiter Glo Assay Kit-3D) was added to each well and the plate was shaken on a plate oscillator (protected from light) for 30 minutes. The plate was incubated at room temperature (protected from light) for 120 minutes. Chemiluminescence values were recorded with a Multiplate reader. […]

[4] = Mouse tolerance assay (once daily for 7 consecutive days); assay type: in vivo; settings: female ICR mice
Method: • Assay animals: ICR mice, female, 5 weeks old • Solvent: 2% DMSO+98% (0.5% MC), treated by sufficient vortex and sonicated to obtain a uniform suspension • Assay method: Female ICR mice were divided into 4 groups according to weight balance, with 5 mice in each group. The administration doses were 50 mg/kg and 200 mg/kg respectively. The compound was administrated once daily for 7 consecutive days.

[5] = mouse, po, intragastric, 20 mg/kg, plasma

| Structure (SMILES) | IC50 (SHP2) [nM] | IC50 [2] [nM] | further results |
| --- | --- | --- | --- |
| COC(=O)c1nc(Sc2cccc(-c3ccn(C)n3)c2Cl)cnc1N1CCC2(CC1)Cc1ccccc1[C@H]2N [Compound 19] |  | ≤ 20 |  |
| CC(=O)c1nc(Sc2ccnc(-c3ncco3)n2)c(N)nc1N1CCC2(CC1)Oc1ccccc1[C@H]2N [Compound 24, (R)-1-(5-amino-3-(3-amino-3H-spiro[benzofuran-2,4′-piperidine]-1′-yl)-6-((2-(oxazole-2-yl)pyrimidine-4-yl)sulfanyl)pyrazine-2-yl)ethanone] | ≤ 20 |  |  |
| [2H][C@@]1(N)c2ccccc2OC12CCN(c1nc(N)c(Sc3ccnc(N)n3)nc1C(C)=O)CC2 [Compound 57] | ≤ 20 | ≤ 20 |  |
| COC(=O)c1nc(Sc2ccnc(N)c2Cl)c(N)nc1N1CCC2(CC1)Oc1ccccc1[C@H]2N [Compound 58] | ≤ 20 |  |  |
| [2H][C@@]1(N)c2ccccc2OC12CCN(c1nc(N)c(Sc3ccnc(N)c3Cl)nc1C(=O)OC)CC2 [Compound 59] | ≤ 20 | ≤ 20 |  |
| Nc1nc(N2CCC3(CC2)Oc2ccccc2[C@H]3N)cnc1Sc1ccnc(N)c1Cl [TW-45, reference compound] |  |  | days of administration after which death appeared ([4]; 200 mg/kg once daily): 4 days; death by the 7th day (in words) ([4]; 200 mg/kg once daily): all animals of the positive control had died by the 7th day; MTD at 7 days ([4]; mouse, in vivo, once daily for 7 days, read-out: mouse maximum tolerated dose MTD): < 200 mg/kg |

Now from value to compound, other results behind:

| IC50 (SHP2) [nM] | IC50 [2] [nM] | Structure (SMILES) | further results |
| --- | --- | --- | --- |
| ≤ 20 | ≤ 20 | CC(=O)c1nc(Sc2cccc(-c3ncco3)c2Cl)c(N)nc1N1CCC2(CC1)Oc1ccccc1[C@H]2N [Compound 1, (R)-1-(5-amino-3-(3-amino-3H-spiro[benzofuran-2,4′-piperidine]-1′-yl)-6-((2-chloro-3-(oxazole-2-yl)phenyl)sulfanyl)pyrazine-2-yl)ethanone] | exposure and absorption in mice (in words) ([1]; intragastric administration): relatively high exposure in mice and both were well absorbed in vivo; Cmax [1, 5]: 2490 ng/mL; Tmax [1, 5]: 4 h; AUC(0-t) ([1]; mouse, po, intragastric, 20 mg/kg, plasma, read-out: AUC0-24 h): 16900 ng·h/mL; IC50 (hERG channel; CHO-K1 stable cell line, hERG tail current, 5 concentrations): > 10 µM; inhibitory effect on the hERG channel (in words) (hERG channel; within the detection concentration range of the assay): no obvious inhibitory effect on the hERG channel |
| ≤ 20 | ≤ 20 | CC(=O)c1nc(Sc2cccc(-c3ncco3)c2Cl)cnc1N1CCC2(CC1)Oc1ccccc1[C@H]2N [Compound 8] |  |
| ≤ 20 | ≤ 20 | COC(=O)c1nc(Sc2cccc(-c3ncco3)c2Cl)c(N)nc1N1CCC2(CC1)Oc1ccccc1[C@H]2N [Compound 16, (R)-5-amino-3-(3-amino-3H-spiro[benzofuran-2,4′-piperidine]-1′-yl)-6-((2-chloro-3-(oxazole-2-yl)phenyl)sulfanyl)pyrazine-2-carboxylic acid methyl ester] |  |
| ≤ 20 |  | Nc1nc(N2CCC3(CC2)Oc2ccccc2[C@H]3N)c(C2COC2)nc1Sc1cccc(-c2ncco2)c1Cl [Compound 21, (R)-1′-(6-amino-5-((2-chloro-3-(oxazole-2-yl)phenyl)sulfanyl)-3-(oxetane-3-yl)pyrazine-2-yl)-3H-spiro[benzofuran-2,4′-piperidine]-3-amine] |  |
| ≤ 20 |  | C=Cc1nc(Sc2cccc(-c3ncco3)c2Cl)c(N)nc1N1CCC2(CC1)Oc1ccccc1[C@H]2N [Compound 22] |  |
| ≤ 20 |  | Nc1nc(N2CCC3(CC2)Oc2ccccc2[C@H]3N)c(F)nc1Sc1cccc(-c2ncco2)c1Cl [Compound 23, (R)-1′-(6-amino-5-((2-chloro-3-(oxazole-2-yl)phenyl)sulfanyl)-3-fluoropyrazine-2-yl)-3H-spiro[benzofuran-2,4′-piperidine]-3-amine] |  |
| ≤ 20 |  | [2H][C@@]1(N)c2ccccc2OC12CCN(c1nc(N)c(Sc3cccc(-c4ncco4)c3Cl)nc1C(C)=O)CC2 [Compound 60] |  |
| ≤ 20 |  | CC(=O)c1nc(Sc2ccnc(N)c2Cl)c(N)nc1N1CCC2(CC1)Oc1ccccc1[C@H]2N [Compound 62] | IC50 [3]: 20 to 50 nM |
